Results: patent US8283382B2, “Vitamin K for prevention and treatment of skin rash secondary to anti-EGFR therapy” (Albert Einstein College of Medicine of Yeshiva University, priority 2005, dated 2012)
“Also recorded” adds a separate entry of the source. Blank lines part the entries; values can stand above or below the compound they belong to.

Tests used:
[1] = Matschiner et al., 1972; cited from earlier work
[2] = target: T1, EGFR (Homo sapiens, UniProt P00533); test: Western blot of phosphorylated EGFR in A431 / HN5 cells; type: cell-based; details: for concentration at which activation of EGFR was seen / activation (phosphorylation) of EGFR: 2 hours exposure; for activation (phosphorylation) of EGFR: concentrations up to 1000 μM; for concentration at which activation was seen, converted to mass concentration: K3: EGFR, Akt and Stat-3, K1: EGFR and Akt
T1 construct: Two human cell lines that overexpress non-mutated EGFR were used; endogenous in cells; host or cells: A431 vulvar carcinoma; HN5 head and neck carcinoma
Method: FIG. 1A-1C. Effects of Vitamins K1, K2 and K3 (VK1, VK2, VK3) on the phosphorylation of EGFR (A), AKT (B) and Stat-3 (C) in human A431 vulvar carcinoma cells. […] Cells were exposed to the indicated concentrations of VK1, VK2 and VK3 for 2 hours. Following exposure, cells were washed twice with cold phosphate buffered saline (PBS) solution, and lysed with 50 μl of lysis buffer. Equal amounts of lysate (30 μg of protein) were subjected to a 7.5% or a 12% SDS-PAGE. EGFR, phos-EGFR, AKT, phos-AKT, Stat-3, and phos-Stat-3 were detected by immunoblotting analysis using corresponding antibodies.
FIG. 2. […] After exposure, cells were washed twice with cold PBS solution, and lysed with 50 μl of lysis buffer. Equal amounts of lyaste (30 μg of protein) were subjected to a 7.5% SDS-PAGE. EGFR and phosphorylated EGFR were detected by immunoblotting analysis using corresponding antibodies.
FIG. 4A-4B. […] Cells were exposed to 0.1 mM VK3 for 1 hour. Following exposure, cells were washed three times with cold medium and then reincubated in VK3-free fresh medium with 10% fetal bovine serum for the indicated times. Cells were harvested and lysed with lysis buffer. Equal amounts of cell lysate were subjected on 7.5% SDS-PAGE (A). The total EGFR and phosphorylated EGFR (p-EGFR) were detected by immunoblot analysis using corresponding antibodies. Control (Con) means cells were not exposed to VK3. The relative p-EGFR was expressed as the intensity of p-EGFR bands in each time points measured by a laser densitometry compared with that in control as one (B).
(§1) Two human cell lines that overexpress non-mutated EGFR were used: A431 vulvar carcinoma and HN5 head and neck carcinoma. Cells were exposed to different concentrations of different vitamin K analogs in the presence of one of three EGFR inhibitors: the anti-EGFR monoclonal antibody cetuximab (Erbitux®) and the EGFR tyrosine kinase inhibitors (TKIs) erlotinib (Tarceva®) and gefitinib (Iressa®). Cytotoxicity was assessed by cell counting. Cells were lysed and the effects of different vitamin K analogs on activation of EGFR, the kinase Akt, and Signal Transducer and Activator of Transcription-3 (STAT-3) were assessed by western blot analysis using antibodies for the phosphorylated (activated) forms of EGFR, Akt and Stat-3. […] Vitamins K1, K2, and K3 were purchased from Sigma-Aldrich (St Louis, Mo.). Activation of EGFR, Akt and Stat-3 were assessed in the presence and absence of anti-EGFR treatments of the cells. Activation of EGFR by vitamin K analog was also assessed using mouse skin, which was homogenized and lysed after treatment with the vitamin K analog. Phosphatase activity was determined using pNPP (4-nitrophenyl phosphate disodium) as a substrate.

[3] = cited from earlier work
[4] = system: Akt; test: Western blot of phosphorylated Akt in A431 / HN5 cells; type: cell-based, human; details: for concentration at which activation of Akt was seen / activation (phosphorylation) of Akt: A431 cells, 2 hours exposure; for activation (phosphorylation) of Akt: concentrations up to 1000 μM
Method: (§2) FIG. 1A-1C. Effects of Vitamins K1, K2 and K3 (VK1, VK2, VK3) on the phosphorylation of EGFR (A), AKT (B) and Stat-3 (C) in human A431 vulvar carcinoma cells. A431 cells (1×10^6 cells/well) were plated in a 6-well plate, and incubated in RPMI-1640 medium with 10% serum overnight. Cells were exposed to the indicated concentrations of VK1, VK2 and VK3 for 2 hours. Following exposure, cells were washed twice with cold phosphate buffered saline (PBS) solution, and lysed with 50 μl of lysis buffer. Equal amounts of lysate (30 μg of protein) were subjected to a 7.5% or a 12% SDS-PAGE. EGFR, phos-EGFR, AKT, phos-AKT, Stat-3, and phos-Stat-3 were detected by immunoblotting analysis using corresponding antibodies. Vitamin K3 stimulated EGFR, Akt and Stat-3.
(§3) Two human cell lines that overexpress non-mutated EGFR were used: A431 vulvar carcinoma and HN5 head and neck carcinoma. Cells were exposed to different concentrations of different vitamin K analogs in the presence of one of three EGFR inhibitors: the anti-EGFR monoclonal antibody cetuximab (Erbitux®) and the EGFR tyrosine kinase inhibitors (TKIs) erlotinib (Tarceva®) and gefitinib (Iressa®). Cytotoxicity was assessed by cell counting. Cells were lysed and the effects of different vitamin K analogs on activation of EGFR, the kinase Akt, and Signal Transducer and Activator of Transcription-3 (STAT-3) were assessed by western blot analysis using antibodies for the phosphorylated (activated) forms of EGFR, Akt and Stat-3. Polyclonal antibodies of anti-EGFR, anti-phos-EGFR (Tyr1068), anti-AKT, anti-phos-AKT (Ser473), anti-Stat-3, and anti-phos-Stat-3 (Tyr-705) were purchased from Cell Signaling (Beverly, Mass.). Vitamins K1, K2, and K3 were purchased from Sigma-Aldrich (St Louis, Mo.). Activation of EGFR, Akt and Stat-3 were assessed in the presence and absence of anti-EGFR treatments of the cells. Activation of EGFR by vitamin K analog was also assessed using mouse skin, which was homogenized and lysed after treatment with the vitamin K analog. Phosphatase activity was determined using pNPP (4-nitrophenyl phosphate disodium) as a substrate.

[5] = target: EGFR (Mus musculus, UniProt Q01279); test: EGFR phosphorylation in mouse skin tissue (immunoblot)
Method: Effect of Vitamin K3 (menadione) on erlotinib-induced inhibition of EGFR phosphorylation in mouse skin. […] Mice were administrated P.O. daily 50 mg/kg of erlotinib; mouse skin was smeared with VK3 15 mM ethanol solution. After treatment, the mice were sacrificed and skin tissue was taken. 100 mg skin tissue was used for the preparation of tissue extracts. Equal amounts of skin tissue extracts (80 μg of protein) were subjected on a 7.5% SDS-PAGE. Total EGFR and p-EGFR were detected by immunoblot analysis.
Effect of VK3, Cream B and Cream VK on EGFR phosphorylation in mouse skin tissue. The mice were smeared with 30 mM or 100 mM VK3 (in ethanol), or with the same doses of Cream B or Cream VK. Following treatment, mice were sacrificed and skin tissues were taken for the preparation of tissue extracts. Equal amounts of tissue extracts (80 μg of protein) were subjected on a 7.5% of SDS-PAGE. Total EGFR and p-EGFR were detected by immunoblot analysis using polyclonal anti-EGFR and p-EGFR antibodies. Cream B is an over the counter product (Baby Cakes) containing Vitamin K3 according to its label; the concentration is not specified. Cream VK is a 5% Vitamin K cream available over the counter.
The effect of Vitamin K3 was examined in the skin of animals receiving the EGFR TK inhibitor erlotinib 100 mg/kg×10 days (days 1-10). […] The skin of mice was smeared with Vitamin K3 in ethanol (15 mM BID×5 days on days 5 to 10). The effect of Vitamin K3 was compared to that of two over-the-counter skin creams. Cream B (Baby Cakes) is an over-the-counter product containing Vitamin K3 according to its label; the concentration is not specified. Cream VK is a 5% Vitamin K cream available over-the-counter.

[6] = system: Stat-3; test: Western blot of phosphorylated Stat-3 in A431 / HN5 cells; type: cell-based, human; details: for activation (phosphorylation) of Stat-3: concentrations up to 1000 μM
Method: as §2, §3

[7] = system: A431 vulvar carcinoma cells; test: Erlotinib-induced cell growth inhibition / cytotoxicity by cell counting; type: cell-based, human
Method: as §1

[8] = system: phosphatase activity; test: Phosphatase activity in A431 cell extracts with pNPP substrate; type: cell-based, human
Method: FIG. 5. […] A431 cells were exposed to 0.1 mM VK3 for 1 hour. After exposure, cells were washed three times with cold medium and then reincubated in VK3-free medium with 10% fetal bovine serum for the indicated time. Cells were harvested and cell extracts were prepared for the assay of phosphatase activity using pNPP (4-nitrophenyl phosphate disodium) as a substrate. Control (Con) means the phosphatase activity in cells without exposure to VK3. The relative phosphatase activity was expressed as compared with that in control as one. VK3-induced phosphatase inhibition is reversible following removal of VK3.
as §1

T1 sequence (P00533 25-1210): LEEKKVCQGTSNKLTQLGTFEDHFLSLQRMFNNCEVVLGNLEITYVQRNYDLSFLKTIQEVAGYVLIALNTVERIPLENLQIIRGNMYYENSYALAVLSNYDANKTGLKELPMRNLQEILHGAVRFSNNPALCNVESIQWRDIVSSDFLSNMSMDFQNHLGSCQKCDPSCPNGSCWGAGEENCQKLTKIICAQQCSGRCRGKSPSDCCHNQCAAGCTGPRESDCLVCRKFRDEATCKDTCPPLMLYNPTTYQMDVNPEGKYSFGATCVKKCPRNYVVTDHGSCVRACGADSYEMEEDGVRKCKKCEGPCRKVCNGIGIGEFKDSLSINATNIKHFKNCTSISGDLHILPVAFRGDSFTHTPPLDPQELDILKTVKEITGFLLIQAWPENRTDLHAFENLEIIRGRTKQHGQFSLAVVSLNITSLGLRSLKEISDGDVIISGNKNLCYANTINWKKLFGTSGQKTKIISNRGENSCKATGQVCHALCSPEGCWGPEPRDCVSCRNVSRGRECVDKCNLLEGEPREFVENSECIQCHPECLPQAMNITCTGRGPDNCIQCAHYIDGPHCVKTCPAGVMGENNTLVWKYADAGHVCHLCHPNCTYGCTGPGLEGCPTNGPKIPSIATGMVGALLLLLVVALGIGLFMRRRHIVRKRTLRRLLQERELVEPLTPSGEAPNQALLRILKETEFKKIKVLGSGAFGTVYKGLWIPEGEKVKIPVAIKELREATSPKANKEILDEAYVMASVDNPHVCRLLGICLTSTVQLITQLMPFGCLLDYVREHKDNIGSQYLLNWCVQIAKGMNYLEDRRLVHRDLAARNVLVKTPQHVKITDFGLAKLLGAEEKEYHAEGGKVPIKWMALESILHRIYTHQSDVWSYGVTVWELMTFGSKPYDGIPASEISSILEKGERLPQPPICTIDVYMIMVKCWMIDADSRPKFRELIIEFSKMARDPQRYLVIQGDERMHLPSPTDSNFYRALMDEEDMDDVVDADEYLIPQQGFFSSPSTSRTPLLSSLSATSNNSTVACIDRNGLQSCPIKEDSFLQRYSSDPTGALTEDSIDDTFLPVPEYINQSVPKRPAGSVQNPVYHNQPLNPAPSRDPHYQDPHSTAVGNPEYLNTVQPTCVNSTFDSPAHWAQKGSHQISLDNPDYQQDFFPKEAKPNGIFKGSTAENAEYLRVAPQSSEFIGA
Chain of EGFR (Mus musculus, UniProt Q01279) (Q01279 25-1210): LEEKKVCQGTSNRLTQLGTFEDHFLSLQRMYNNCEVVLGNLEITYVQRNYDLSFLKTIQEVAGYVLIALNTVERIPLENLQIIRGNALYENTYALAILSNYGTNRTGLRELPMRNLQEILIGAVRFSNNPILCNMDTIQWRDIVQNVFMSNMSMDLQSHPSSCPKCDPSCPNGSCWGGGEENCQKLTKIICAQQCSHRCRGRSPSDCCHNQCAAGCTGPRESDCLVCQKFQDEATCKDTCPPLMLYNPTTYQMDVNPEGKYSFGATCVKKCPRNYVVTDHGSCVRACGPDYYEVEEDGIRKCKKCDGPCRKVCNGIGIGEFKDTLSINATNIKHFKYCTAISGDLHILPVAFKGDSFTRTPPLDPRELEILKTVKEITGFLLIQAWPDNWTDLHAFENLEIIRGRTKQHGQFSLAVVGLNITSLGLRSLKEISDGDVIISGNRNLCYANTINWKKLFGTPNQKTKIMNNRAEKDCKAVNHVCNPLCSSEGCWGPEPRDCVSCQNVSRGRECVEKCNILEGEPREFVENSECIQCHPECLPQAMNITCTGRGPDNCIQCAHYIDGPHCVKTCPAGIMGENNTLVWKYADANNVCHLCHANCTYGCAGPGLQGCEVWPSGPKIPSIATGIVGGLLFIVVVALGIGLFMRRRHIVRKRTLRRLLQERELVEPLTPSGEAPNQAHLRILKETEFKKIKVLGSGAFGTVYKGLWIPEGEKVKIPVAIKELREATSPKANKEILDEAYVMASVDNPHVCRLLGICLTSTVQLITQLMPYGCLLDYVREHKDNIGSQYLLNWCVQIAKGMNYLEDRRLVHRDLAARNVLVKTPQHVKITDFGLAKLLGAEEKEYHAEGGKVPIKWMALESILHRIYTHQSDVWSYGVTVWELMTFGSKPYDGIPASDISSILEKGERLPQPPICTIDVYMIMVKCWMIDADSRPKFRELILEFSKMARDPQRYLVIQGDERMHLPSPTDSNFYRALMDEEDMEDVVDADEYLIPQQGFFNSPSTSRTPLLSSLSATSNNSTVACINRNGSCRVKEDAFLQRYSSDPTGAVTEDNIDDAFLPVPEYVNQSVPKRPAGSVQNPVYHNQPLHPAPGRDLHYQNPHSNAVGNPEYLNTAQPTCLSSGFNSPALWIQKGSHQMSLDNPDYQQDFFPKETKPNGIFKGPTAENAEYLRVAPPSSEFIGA

Structure (SMILES): CC1=C(C/C=C(/C)CCC[C@H](C)CCC[C@H](C)CCCC(C)C)C(=O)c2ccccc2C1=O (single isomer, unassigned) [cis isomer]
- biological activity [1]: little or no biological activity

- reversibility of induced EGFR phosphorylation ([2]; A431 cells, 0.1 mM VK3 1 hour, then VK3-free medium): reversible
- concentration at which activation of EGFR was seen ([2]; A431 cells): 100 µM
- activation (phosphorylation) of EGFR ([2]; A431 cells): stimulated; also recorded: activated
- concentration at which activation was seen, converted to mass concentration ([2]; A431 cells): about 17 μg/ml
- activation of EGFR in the presence of cetuximab ([2]; Vitamin K3 0.1 and 0.5 mM): activated
- EGFR phosphorylation in mouse skin tissue ([5]; skin smeared with 30 mM or 100 mM (VK3 in ethanol) x 3 doses every 12 hours, same doses of creams): activates EGFR
- activation of EGFR in normal mouse skin ([5]; topical application): activated
Structure (SMILES): CC1=CC(=O)c2ccccc2C1=O [Vitamin K3, 2-methyl-1,4-naphthoquinone]
- activation of EGFR in the presence of erlotinib ([2]; A431 or HN5 cells, serum free medium, erlotinib 2 μM, Vitamin K3 0.01-0.5 mM, 2 hours): prevents the inhibition of EGFR phosphorylation; also recorded: activated
- dermatitis on topical administration ([3]; Page et al., 1942): can cause dermatitis
- vesiculation of the skin on topical administration ([3]; Ulbrich, 1961): vesiculation of the skin
- concentration at which activation of Akt was seen [4]: 100 µM
- activation (phosphorylation) of Akt [4]: stimulated; also recorded: activated
- activation of Akt in the presence of erlotinib ([4]; A431 or HN5 cells, erlotinib 2 μM, at 0.5 mM vitamin K3): activated
- activation of Akt in the presence of cetuximab ([4]; Vitamin K3 0.1 and 0.5 mM): activated
- p-EGFR in skin of mice receiving erlotinib ([5]; erlotinib P.O. daily, skin smeared with Vitamin K3 15 mM in ethanol BID x 5 days (days 5 to 10)): rescues; also recorded: significant p-EGFR expression
- concentration at which activation of Stat-3 was seen ([6]; A431 cells, 2 hours exposure): 100 µM
- activation (phosphorylation) of Stat-3 ([6]; A431 cells, 2 hours exposure): stimulated; also recorded: activated
- activation of Stat-3 in the presence of erlotinib ([6]; A431 or HN5 cells, erlotinib 2 μM, at 0.1 and 0.5 mM vitamin K3): activated
- activation of Stat-3 in the presence of cetuximab ([6]; Vitamin K3 0.1 and 0.5 mM): activated
- decrease of cytotoxicity of the EGFR inhibitor (erlotinib) ([7]; co-incubation with Vitamin K3 50-100 μM, 72 hours, cell counting): 4-6 fold
- effect on phosphatase activity ([8]; A431 cells, 0.1 mM VK3 for 1 hour, pNPP substrate): inhibits phosphatase activity; also recorded: inhibiting phosphatase activity
- time after removal at which phosphatase inhibition is reversed ([8]; A431 cells, reincubation in VK3-free medium): 2 to 3 h
- reversibility of phosphatase inhibition ([8]; following removal of VK3): reversible

Structure (SMILES): C#Cc1cccc(Nc2ncnc3cc(OCCOC)c(OCCOC)cc23)c1 [erlotinib]
- effect of exposure on cells ([7]; A431 cells, erlotinib alone): cell death

Structure (SMILES): CC1=C(C/C=C(\C)CCC[C@H](C)CCC[C@H](C)CCCC(C)C)C(=O)c2ccccc2C1=O [Vitamin K1, 2-methyl-3-phytyl-1,4-naphthoquinone]
- concentration at which activation of EGFR was seen ([2]; A431 cells): 1000 µM
- activation (phosphorylation) of EGFR ([2]; A431 cells): activated
- concentration at which activation was seen, converted to mass concentration ([2]; A431 cells): about 450 μg/ml
- concentration at which activation of Akt was seen [4]: 1000 µM

Structure (SMILES): CC(C)=CCC/C(C)=C/CC/C(C)=C/CC/C(C)=C/CC/C(C)=C/CC/C(C)=C/CC1=C(C)C(=O)c2ccccc2C1=O [Vitamin K2, 2-methyl-3-hexaprenyl-1,4-naphthoquinone]
- activation (phosphorylation) of EGFR ([2]; A431 cells): little or no effect
- activation (phosphorylation) of Akt [4]: little or no effect
- activation (phosphorylation) of Stat-3 ([6]; A431 cells, 2 hours exposure): little or no effect
